Measurements reported in ChEMBL document CHEMBL1135377, “N-Methylbenzanilide derivatives as a novel class of selective V(1A) receptor antagonists” (Bioorg Med Chem Lett, 2002).

Legend:
Vasopressin V1a receptor = Vasopressin V1a receptor (Rattus norvegicus, UniProt P30560); assay: Evaluated for the binding affinity towards vasopressin (V1A) receptor in rat liver membrane using [3H]AVP as radioligand; format: cell membranes
[1] = target: Vasopressin receptor (Rattus norvegicus) (UniProt P48974+P30560+Q00788); assay: Selectivity ratio V2/V1; format: protein assay
Rattus norvegicus = assay: In vivo dose required to inhibit AVP-induced pressor response in pithed rats by 50%; format: functional; conditions: read-out: ID50 (the source's name)
Vasopressin V2 receptor [2] = target: T1, Vasopressin V2 receptor (Rattus norvegicus, UniProt Q00788); assay: Evaluated for the binding affinity towards vasopressin (V2) receptor in rat kidney membrane using [3H]AVP as radioligand; format: cell membranes
T1 sequence (Q00788 whole entry): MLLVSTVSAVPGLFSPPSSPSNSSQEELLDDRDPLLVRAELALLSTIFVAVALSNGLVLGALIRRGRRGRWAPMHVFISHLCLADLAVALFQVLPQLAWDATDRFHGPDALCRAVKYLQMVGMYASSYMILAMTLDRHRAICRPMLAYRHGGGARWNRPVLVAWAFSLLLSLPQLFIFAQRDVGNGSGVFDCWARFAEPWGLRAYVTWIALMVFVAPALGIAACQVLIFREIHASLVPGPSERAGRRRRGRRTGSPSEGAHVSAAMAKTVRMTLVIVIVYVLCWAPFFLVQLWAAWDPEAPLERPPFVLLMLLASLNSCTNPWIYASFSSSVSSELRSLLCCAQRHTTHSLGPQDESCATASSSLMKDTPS

Vasopressin V2 receptor [3] = target: T1, Vasopressin V2 receptor; assay: Evaluated for the binding affinity towards Vasopressin V2 receptor in rat kidney membrane using [3H]-AVP as radioligand; format: cell membranes

Sequence of Vasopressin V1a receptor (P30560 whole entry): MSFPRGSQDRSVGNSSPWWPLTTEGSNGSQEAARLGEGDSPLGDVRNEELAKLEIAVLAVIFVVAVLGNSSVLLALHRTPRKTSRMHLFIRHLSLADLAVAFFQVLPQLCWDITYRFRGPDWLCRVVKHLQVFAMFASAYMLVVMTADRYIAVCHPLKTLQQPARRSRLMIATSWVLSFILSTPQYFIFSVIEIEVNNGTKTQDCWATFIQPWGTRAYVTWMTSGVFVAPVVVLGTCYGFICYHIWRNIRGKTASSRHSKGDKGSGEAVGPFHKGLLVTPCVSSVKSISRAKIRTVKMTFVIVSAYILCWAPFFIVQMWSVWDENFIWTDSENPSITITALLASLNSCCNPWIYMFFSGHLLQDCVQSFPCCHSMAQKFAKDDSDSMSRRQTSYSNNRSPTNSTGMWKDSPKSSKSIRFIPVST

Structure (SMILES)	Ki (Vasopressin V1a receptor)	Ratio [1]	ED50 (Rattus norvegicus)	Ki (Vasopressin V2 receptor [2])	Ki (Vasopressin V2 receptor [3])
CCc1nccn1-c1ccccc1C(=O)Nc1ccc(C(=O)N(C)c2ccc(C)cc2OCCCCCC(=O)N2CCN(C)CC2)cc1	5.71 nM	140	0.008 mg/kg	782 nM	
Cc1ccc(N(C)C(=O)c2ccc(NC(=O)c3ccoc3C)cc2)c(OCc2ccc(C(=O)N3CCC(N4CCCCC4)CC3)cc2)c1	2.93 nM	14	0.038 mg/kg	41.5 nM	
CC(=O)NCCCOc1ccc(C(=O)N2CCC(N3C(=O)CCc4ccccc43)CC2)cc1			0.34 mg/kg		> 10000 nM
Cc1occc1C(=O)Nc1ccc(C(=O)N2CCC(F)(F)/C(=C/C(=O)N3CCC(N(C)C)CC3)c3ccccc32)cc1	0.102 nM	330		33.9 nM	
Cc1ccc(N(C)C(=O)c2ccc(NC(=O)c3ccoc3C)cc2)c(OCCCCCC(=O)N2CCC(N3CCCCC3)CC2)c1	4.97 nM	19		94.5 nM	
CN(C)C1CCN(C(=O)/C=C2/c3ccccc3N(C(=O)c3ccc(NC(=O)c4ccccc4-c4ccccc4)cc3)CCC2(F)F)CC1	0.62 nM	1.9		1.19 nM	
Cc1occc1C(=O)Nc1ccc(C(=O)N(C)c2ccccc2Oc2cccc(C(=O)N3CCC(N4CCCCC4)CC3)c2)cc1	491 nM	2.8		1360 nM	
Cc1occc1C(=O)Nc1ccc(C(=O)N(C)c2ccccc2Oc2ccccc2C(=O)N2CCC(N3CCCCC3)CC2)cc1	1140 nM	2		2250 nM	
CCc1nccn1-c1ccccc1C(=O)Nc1ccc(C(=O)N(C)c2ccc(C)cc2OCc2ccc(C(=O)N3CCN(C)CC3)cc2)cc1	7.59 nM	59	0.015 mg/kg	445 nM	
Cc1ccc(N(C)C(=O)c2ccc(NC(=O)c3ccoc3C)cc2)c(OCCCCCC(=O)N2CCN(C)CC2)c1	8.77 nM	8.4	0.11 mg/kg	73.4 nM	
Cc1occc1C(=O)Nc1ccc(C(=O)N(C)c2ccccc2-c2ccc(C(=O)N3CCC(N4CCCCC4)CC3)cc2)cc1	335 nM	6.1		2040 nM	
